The subject of one assay is actin stress fibers. In words: Actin stress fibers in HUVEC during S. pyogenes infection. The class given is cell-based, human. The settings on record: ML 141 10 μM, 18-20 h, MOI 30, 2 h. Here is the method:
FIG. 13 is an image depicting ML 141 decreasing actin stress fiber depolymerization during infection. HUVEC were incubated with vehicle control dimethyl sulfoxide (DMSO) or with ML 141 (10 μM) 18-20 h prior to infection with Streptococcus pyogenes at a multiplicity of infection of 30 (2 h). Actin was detected using Alexa Fluor 488 phalloidin. Data are presented as the percentage of HUVEC with no detectable actin stress fibers. 100-200 cells/treatment were evaluated from randomly selected fields. Scale bar is 50 μm (P<0.05 by χ^2 test of association).
For actin assessment, HUVEC were seeded at 6×10^5 cells/ml in 35 mm glass-bottom dishes (MatTek, Ashland, Mass.) that had been coated with Attachment Factor. HUVEC were pretreated with ML 141 or with DMSO and treated with gentamicin as described above. HUVEC were washed three times with PBS and fixed with 4% paraformaldehyde for 30 min, RT. HUVEC were gently washed four times with PBS, permeabilized and blocked with 1% BSA/0.1% Triton (Sigma-Aldrich, T8787). HUVEC were gently washed four times with PBS, probed for actin with Alexa Fluor 488 phalloidin (1:40, Life Technologies, A12379) in PBS (30 min, RT) and washed three more times with PBS. […] A total of 200 HUVEC were assessed for actin stress fiber disassembly from randomly selected fields-of-view. […]

Assay [1] deals with Staphylococcus aureus. Briefly: S. aureus invasion in all cell types examined. The class given is cell-based. The settings on record: HUVEC, HEK, U-87 MG, RAW and A549. As for the experimental part:
Two days prior to the assay, TSB is inoculated with S. aureus (American Type Culture Collection #29213) and incubated overnight (225 rpm, 37° C.). Bacteria are subcultured the next day into fresh TSB. On the day of the assay, bacteria are pelleted (10000×g, 37° C., 3 min), are washed in saline, are pelleted as above, are resuspended in saline, then fluorescently labeled by incubation with rabbit anti-mouse IgG Alexa Fluor 488 (final concentration 8 μg/ml, RT, 20 min). Protein A, a S. aureus cell surface protein, avidly binds IgG thereby labeling the bacteria. Labeled bacteria are washed twice as above and are resuspended to 3×10^8 CFU/ml in saline. Host cells are incubated with the bacteria for 1 hour (1.2×10^8 CFU/ml for same-day recovery, 5×10^6 for recovery after 48 hours, 1.4×10^7 CFU/ml; 5% CO2, 37° C.). […] To detect the level of infection using flow cytometry, cells that have been infected with fluorescently-labeled bacteria are washed extensively with PBS, lifted from 96-well plate by incubation with trypsin, washed extensively in FACS buffer (2% BSA/0.1% sodium azide/PBS), fixed (FACS buffer containing 0.74% formaldehyde), and are counted using an Accuri flow cytometer (BD, Franklin Lakes, N.J.). They are also lifted from culture dishes using cell scrapers, pelleted, fixed (1% BSA/0.74% formaldehyde/PBS), and are counted using an Accuri flow cytometer. […]

The subject of the next assay is β1 integrin subunit. In words: β1 integrin surface expression in HUVEC, flow cytometry. The class given is cell-based, human. The settings on record: ML 141 10 μM versus DMSO. Here is the method:
FIG. 10B is a graph illustrating that expression of the […] integrin subunit remains substantially unchanged in HUVEC incubated with DMSO or ML 141 (10 μM). Pretreated HUVEC were stained with PE conjugated anti-β1 and examined using flow cytometry (no difference between groups was detected, t-test, p>0.05).
To examine β1 surface expression, recycling of the integrin was terminated (4° C., 15 min) and HUVEC lifted from plates using cell scrapers. After washing in FACS buffer (2% BSA/0.1% sodium azide/PBS), cells were incubated with PE-conjugated anti-β1 (BD; 30 min, on ice), washed, fixed in FACS buffer containing 4% paraformaldehyde, and analyzed using an Accuri C6 flow cytometer (BD).
For orientation: In flow cytometry, cells or beads pass a laser one at a time.

In assay [2] the test system is Staphylococcus aureus. In words: S. aureus invasion of monocytic cell line U937, flow cytometry. To be noted: pretreatment 0.05 μM, 1 hour. The class given is cell-based. Here is the method:
FIG. 1 illustrates ML 141 limits host cell invasion. The monocytic cell line U937 was pretreated with the vehicle control dimethyl sulfoxide (DMSO) or with ML 141 (0.05 μM, 1 h) followed by infection with Alexa Fluor 488-labeled S. aureus (1 hour). The % of 488^+ cells decreased with ML 141 treatment.
Specific pharmacologic inhibition of CDC42 has been examined to determine whether it is sufficient in the inhibition of host cell invasion by S. aureus. Host cell cytotoxicity was undetectable below 30 μM in vitro. The highest concentration of ML 141 introduced in vivo without detectable toxicity was 100 mg/kg body weight [BW]. The compound was dissolved in polyethylene glycol and administered as a single intraperitoneal injection to C57BL/6 mice.

We go through one molecule from patent US10183032B2, “Methods for treating bacterial infection” (Ball State Innovation Corporation, priority 2012, dated 2019).

`COc1ccc(C2CC(c3ccccc3)=NN2c2ccc(S(N)(=O)=O)cc2)cc1` (stereo not shown) [ML 141, 4-[3-(4-methoxyphenyl)-5-phenyl-3,4-dihydropyrazol-2-yl]benzenesulfonamide]: in the assay with actin stress fibers, the “reordering of actin stress fibers during S. pyogenes infection” value is given as “less reordering of actin stress fibers”. Moreover, the “inhibition of invasion in all cell types examined” value with Staphylococcus aureus [1] is “inhibited invasion”. Also, the “expression of β1 integrin subunit” value with β1 integrin subunit was “no difference”. The “invasion by S. aureus (% of 488+ cells)” value in the assay with Staphylococcus aureus [2] is on record as “decreased invasion”.
